Laboratory results reported in patent US10316017B2, “COT modulators and methods of use thereof” (Gilead Sciences, Inc., priority 2015, dated 2019).
pIC50: −log10 of the molar value.

Biological target: T1, human Cot catalytic domain (30-397 amino acids) (Homo sapiens, UniProt P41279)
T1 construct: Purified recombinant human Cot catalytic domain (30-397 amino acids) was purchased from Cama Biosciences; purchased Cama Biosciences (so in the source)
Test: High Throughput Cot Biochemical Assay (KinEASE TR-FRET)
Details: Cot KinEASE TR-FRET, 400 μM ATP; read-out: IC50 HTRF
Protocol: Example 61: High Throughput Cot Biochemical Assay
In this assay, Cot-catalyzes the phosphorylation of a XL665-labeled peptide substrate. Europium conjugated phospho-tyrosine specific antibody binds the resulting phosphorylated peptide. […] Purified recombinant human Cot catalytic domain (30-397 amino acids) was purchased from Cama Biosciences. […] The standard 5 μL reaction mixture contained 400 μM ATP, 1 μM STK3 peptide, 5 nM of Cot in reaction buffer (10 mM MOPS, pH 7.0, 0.02% NaN3, 0.5 mg/mL BSA, 10 mM MgOAc, 1 mM DTT, 0.025% NP-40, 1.5% glycerol) and 0.1% DMSO.

T1 sequence (P41279 30-397): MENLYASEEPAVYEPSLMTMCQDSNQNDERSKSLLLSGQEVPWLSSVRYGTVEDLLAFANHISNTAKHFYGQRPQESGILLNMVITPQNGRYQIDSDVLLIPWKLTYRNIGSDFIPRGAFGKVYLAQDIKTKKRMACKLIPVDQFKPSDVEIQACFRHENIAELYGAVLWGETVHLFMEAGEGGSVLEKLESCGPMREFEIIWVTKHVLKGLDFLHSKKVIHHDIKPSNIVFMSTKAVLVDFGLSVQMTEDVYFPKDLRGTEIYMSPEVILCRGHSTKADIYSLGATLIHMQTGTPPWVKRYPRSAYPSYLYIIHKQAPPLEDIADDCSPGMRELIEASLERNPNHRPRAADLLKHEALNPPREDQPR

Row | Compound | pIC50
1 | CC(C)(C)N1CCC(n2cc([C@@H](Nc3cc(Cl)c4ncc(C#N)c(Nc5cccc(C(F)(F)F)c5)c4c3)c3ccc(Cl)cc3)nn2)CC1 [Example 762, (S)-6-(((1-(1-(tert-butyl)piperidin-4-yl)-1H-1,2,3-triazol-4-yl)(4-chlorophenyl)methyl)amino)-8-chloro-4-((3-(trifluoromethyl)phenyl)amino) quinoline-3-carbonitrile] | 6.29
2 | CC(C)(CC(=O)O)n1cc([C@@H](Nc2cc(Cl)c3ncc(C#N)c(Nc4ccc(F)c(Cl)c4)c3c2)c2ccc(F)cc2)nn1 [Example 812, (S)-3-(4-(((8-chloro-4-((3-chloro-4-fluorophenyl)amino)-3-cyanoquinolin-6-yl)amino)(4-fluorophenyl)methyl)-1H-1,2,3-triazol-1-yl)-3-methylbutanoic acid] | 6.10
3 | CC(C)(C)N1CCC(n2cc([C@@H](Nc3cc(Cl)c4ncc(C#N)c(Nc5cccc(-n6nccn6)c5)c4c3)c3ccccc3)nn2)CC1 [Example 785, (S)-4-((3-(2H-1,2,3-triazol-2-yl)phenyl)amino)-6-(((1-(1-(tert-butyl)piperidin-4-yl)-1H-1,2,3-triazol-4-yl)(phenyl)methyl)amino)-8-chloroquinoline-3-carbonitrile] | 6.11
4 | CN(C)Cc1ccc([C@H](Nc2cc(Cl)c3ncc(C#N)c(Nc4ccc(F)c(Cl)c4)c3c2)c2cn(C3CCN(C(C)(C)C)CC3)nn2)cc1 [Example 735, (S)-6-(((1-(1-(tert-butyl)piperidin-4-yl)-1H-1,2,3-triazol-4-yl)(4-((dimethylamino)methyl)phenyl)methyl)amino)-8-chloro-4-((3-chloro-4-fluorophenyl)amino)quinoline-3-carbonitrile] | 6.98
5 | COc1cc2ncc(C#N)c(Nc3ccc(F)c(Cl)c3)c2cc1N[C@@H](c1ccc(Cl)cc1)c1cn(C2CCN(C(C)(C)C)CC2)nn1 [Example 769, (S)-6-(((1-(1-(tert-butyl)piperidin-4-yl)-1H-1,2,3-triazol-4-yl)(4-chlorophenyl)methyl)amino)-4-((3-chloro-4-fluorophenyl)amino)-7-methoxyquinoline-3-carbonitrile] | < 5.00
6 | COc1cc(Nc2c(C#N)cnc3c(Cl)cc(N[C@@H](c4ccc(Cl)cc4)c4cn(C5CCN(C(C)(C)C)CC5)nn4)cc23)c(Cl)cc1Cl [Example 751, (S)-6-(((1-(1-(tert-butyl)piperidin-4-yl)-1H-1,2,3-triazol-4-yl)(4-chlorophenyl)methyl)amino)-8-chloro-4-((2,4-dichloro-5-methoxyphenyl)amino)quinoline-3-carbonitrile] | < 5.00
7 | CC(C)(C)N1CCC(n2cc([C@@H](Nc3cc(Cl)c4ncc(C#N)c(Nc5cncc(F)c5)c4c3)c3ccc(Cl)cc3)nn2)CC1 [Example 771, (S)-6-(((1-(1-(tert-butyl)piperidin-4-yl)-1H-1,2,3-triazol-4-yl)(4-chlorophenyl)methyl)amino)-8-chloro-4-((5-fluoropyridin-3-yl)amino)quinoline-3-carbonitrile] | 7.03
8 | N#Cc1cnc2c(Cl)cc(N[C@H](c3ccc(Cl)cc3)c3cn(C4CCNCC4)nn3)cc2c1Nc1ccc(F)c(Cl)c1 [Example 857, (R)-8-chloro-4-((3-chloro-4-fluorophenyl)amino)-6-(((4-chlorophenyl)(1-(piperidin-4-yl)-1H-1,2,3-triazol-4-yl)methyl)amino)quinoline-3-carbonitrile] | 5.87
9 | COc1cc2ncc(C#N)c(Nc3ccc(F)c(Cl)c3)c2cc1NC(c1ccc(F)cc1)c1cn(C)nn1 (stereo not drawn) [Example 798, 4-((3-chloro-4-fluorophenyl)amino)-6-(((4-fluorophenyl)(1-methyl-1H-1,2,3-triazol-4-yl)methyl)amino)-7-methoxyquinoline-3-carbonitrile] | 5.10
10 | Cc1snnc1C(Nc1cc(Cl)c2ncc(C#N)c(Nc3ccc(F)c(Cl)c3)c2c1)c1ccc(F)cc1 (stereo not drawn) [Example 718, 8-chloro-4-((3-chloro-4-fluorophenyl)amino)-6-(((4-fluorophenyl)(5-methyl-1,2,3-thiadiazol-4-yl)methyl)amino)quinoline-3-carbonitrile] | 5.46
11 | N#Cc1cnc2c(Cl)cc(NC(c3ccc(F)cc3)c3cocn3)cc2c1Nc1ccc(F)c(Cl)c1 (stereo not drawn) [Example 807, 8-chloro-4-((3-chloro-4-fluorophenyl)amino)-6-(((4-fluorophenyl)(oxazol-4-yl)methyl)amino)quinoline-3-carbonitrile] | 6.36
12 | N#Cc1cnc2c(Cl)cc(NC(c3ccc(OC(F)(F)F)cc3)c3cn(C4CCN(C(=O)OCc5ccccc5)CC4)nn3)cc2c1Nc1ccc(F)c(Cl)c1 (stereo not drawn) [Example 896, benzyl 4-(4-(((8-chloro-4-((3-chloro-4-fluorophenyl)amino)-3-cyanoquinolin-6-yl)amino)(4-(trifluoromethoxy)phenyl)methyl)-1H-1,2,3-triazol-1-yl)piperidine-1-carboxylate] | < 5.00
13 | Cc1cc(F)ccc1C(Nc1cc(Cl)c2ncc(C#N)c(Nc3ccc(F)c(Cl)c3)c2c1)c1cn(C2CCN(C(=O)OCc3ccccc3)CC2)nn1 (stereo not drawn) [Example 883, benzyl 4-(4-(((8-chloro-4-((3-chloro-4-fluorophenyl)amino)-3-cyanoquinolin-6-yl)amino)(4-fluoro-2-methylphenyl)methyl)-1H-1,2,3-triazol-1-yl) piperidine-1-carboxylate] | 5.17
14 | N#Cc1cnc2c(Cl)cc(NC(c3ccc(F)cc3)c3cn(C4CCOCC4)nn3)cc2c1Nc1ccc(F)c(Cl)c1 (stereo not drawn) [Example 843, 8-chloro-4-((3-chloro-4-fluorophenyl)amino)-6-(((4-fluorophenyl)(1-(tetrahydro-2H-pyran-4-yl)-1H-1,2,3-triazol-4-yl)methyl)amino)quinoline-3-carbonitrile] | 7.24

Stronger by pIC50, values ahead:

Row | pIC50 | Compound
15 | 7.32 | Cc1ccc(C(Nc2cc(Cl)c3ncc(C#N)c(Nc4ccc(F)c(Cl)c4)c3c2)c2cn(C3CCNCC3)nn2)cc1 (stereo not drawn) [Example 916, 8-chloro-4-((3-chloro-4-fluorophenyl)amino)-6-(((1-(piperidin-4-yl)-1H-1,2,3-triazol-4-yl)(p-tolyl)methyl)amino) quinoline-3-carbonitrile]
16 | 7.33 | CCN1CC[C@H](n2cc(C(Nc3cc(Cl)c4ncc(C#N)c(Nc5ccc(F)c(Cl)c5)c4c3)c3ccc(F)cc3)nn2)C1 (stereo partly drawn) [Example 877, 8-chloro-4-((3-chloro-4-fluorophenyl)amino)-6-(((1-((S)-1-ethylpyrrolidin-3-yl)-1H-1,2,3-triazol-4-yl)(4-fluorophenyl)methyl)amino) quinoline-3-carbonitrile]
17 | 7.41 | N#Cc1cnc2c(Cl)cc(NC(c3ccc(F)cc3)c3c[nH]nn3)cc2c1Nc1ccc(F)c(Cl)c1 (stereo not drawn) [Example 893, 8-chloro-4-((3-chloro-4-fluorophenyl)amino)-6-(((4-fluorophenyl)(1H-1,2,3-triazol-4-yl)methyl)amino)quinoline-3-carbonitrile]
18 | 7.57 | CCN1CC(n2cc(C(Nc3cc(Cl)c4ncc(C#N)c(Nc5ccc(F)c(Cl)c5)c4c3)c3ccc(F)cc3)nn2)C1 (stereo not drawn) [Example 870, 8-chloro-4-((3-chloro-4-fluorophenyl)amino)-6-(((1-(1-ethylazetidin-3-yl)-1H-1,2,3-triazol-4-yl)(4-fluorophenyl)methyl)amino) quinoline-3-carbonitrile]
19 | 7.62 | CC1(C)CC(n2cc(C(Nc3cc(Cl)c4ncc(C#N)c(Nc5ccc(F)c(Cl)c5)c4c3)c3ccc(F)cc3)nn2)CCN1 (stereo not drawn) [Example 839, 8-chloro-4-((3-chloro-4-fluorophenyl)amino)-6-(((1-(2,2-dimethylpiperidin-4-yl)-1H-1,2,3-triazol-4-yl)(4-fluorophenyl)methyl)amino) quinoline-3-carbonitrile]
20 | 7.85 | N#Cc1cnc2c(Cl)cc(NC(c3ccc(F)c(F)c3)c3cn(C4CCNCC4)nn3)cc2c1Nc1ccc(F)c(Cl)c1 (stereo not drawn) [Example 900, 8-chloro-4-((3-chloro-4-fluorophenyl)amino)-6-(((3,4-difluorophenyl)(1-(piperidin-4-yl)-1H-1,2,3-triazol-4-yl)methyl)amino)quinoline-3-carbonitrile]
21 | 7.96 | N#Cc1cnc2c(Cl)cc(NC(c3ccc(F)cc3)c3cn(C4CCNCC4)nn3)cc2c1Nc1ccc(F)c(Cl)c1 (stereo not drawn) [Example 886, 8-chloro-4-((3-chloro-4-fluorophenyl)amino)-6-(((4-fluorophenyl)(1-(piperidin-4-yl)-1H-1,2,3-triazol-4-yl)methyl)amino)quinoline-3-carbonitrile]
22 | 8.15 | N#Cc1cnc2c(Cl)cc(N[C@@H](c3ccc(F)cc3)c3cn(C4CCNCC4)nn3)cc2c1Nc1ccc(F)c(Cl)c1 [Example 851, (S)-8-chloro-4-((3-chloro-4-fluorophenyl)amino)-6-(((4-fluorophenyl)(1-(piperidin-4-yl)-1H-1,2,3-triazol-4-yl)methyl)amino)quinoline-3-carbonitrile]
23 | 8.15 | N#Cc1cnc2c(Cl)cc(NC(c3ccc(F)cc3)c3cn(C[C@H]4CCCN4)nn3)cc2c1Nc1ccc(F)c(Cl)c1 (stereo partly drawn) [Example 817, 8-chloro-4-((3-chloro-4-fluorophenyl)amino)-6-(((4-fluorophenyl)(1-(((R)-pyrrolidin-2-yl)methyl)-1H-1,2,3-triazol-4-yl)methyl)amino)quinoline-3-carbonitrile]
24 | 8.22 | CN1CCC(n2cc([C@@H](Nc3cc(Cl)c4ncc(C#N)c(Nc5ccc(F)c(Cl)c5)c4c3)c3ccc(F)cc3)nn2)CC1 [Example 826, (S)-8-chloro-4-((3-chloro-4-fluorophenyl)amino)-6-(((4-fluorophenyl)(1-(1-methylpiperidin-4-yl)-1H-1,2,3-triazol-4-yl)methyl)amino)quinoline-3-carbonitrile]
